We go through two compounds from patent publication US20060020004A1, “Isoxazolidine compounds for treatment of bacterial infections” (Infinity Pharmaceuticals, Inc., priority 2004, published 2006).

In assay [1] the test system is Staphylococcus aureus (Smith) ATCC 19636. As to the kind of experiment: MIC determination, S. aureus. Type of assay: cell-based. The settings on record: S. aureus ATCC 19636, 17 h. As to the method: (§1) Susceptibility testing for bacterial cultures is performed according to the National Council for Clinical Laboratory Standards (NCCLS) protocol M100-S12, “Performance Standards for Antimicrobial Susceptibility Testing.” The bacterial strains recommended by NCCLS were obtained from the American Type Culutre Collection (ATCC) (Table) and were maintained on Mueller Hinton (MHA) agar plates plus or minus 3% lysed horse blood (see Table). The bacteria were grown in Cation adjusted Mueller Hinton Broth (CaMHB) for liquid growth and susceptibility testing. S. cerevisiae (yeast) is grown in yeast peptone dextrose (YPD) media.
(§2) All bacterial cultures were grown at 37 degrees Celsius. Fresh colonies of S. aureus and MRSA were inoculated into liquid media and grown overnight and diluted the next day to grow to mid-log (Table 2). E. faecalis and S. pneumonia mid-log cultures were started directly from colony on plates. To attain mid-log growth, cultures were grown to an optical density (OD) at A590 of 0.2-0.8 (see Table 2) and then diluted to proper OD to obtain 5×10^5 cells/mL.
(§3) Diluted bacterial cultures are added to compound plates with compound diluted 2-fold from 100 μg/mL to 0.2 μg/mL final concentration in DMSO. Control antibiotics are also added: vancomycin, linezolid, and penicillin. In 384 well plates, 0.5 μL compound is added followed by addition of 50 μL of culture. DMSO alone is included as a control. Plates incubated at 37 degrees Celsius for 17-24 h.
(§4) Plates with cells mixed with compounds are incubated for 17 h for S. aureus and yeast, 24 h for MRSA, and all Enterococcus and Streptococcus strains. Yeast plates are incubated […].
(§5) Viability is determined by reading plates at A590 to determine optical density of treated and untreated cells and determining growth inhibition relative to controls.

Assay [2] deals with Methicillin resistant S. aureus ATCC 33591. As to the kind of experiment: MIC determination, MRSA. Format: cell-based, Staphylococcus aureus. The note with it: MRSA ATCC 33591, 24 h. As to the method: as §1, §2, §3, §4, §5
Assay [3] concerns Streptococcus pneumonia ATCC 49619. As to the kind of experiment: MIC determination, S. pneumonia. The settings on record: ATCC 49619, 24 h. Format: cell-based. As to the method:
as §1, §2, §3, §4, §5

Assay [4] deals with Penicillin-res. S. pneumonia ATCC 700671. As to the kind of experiment: MIC determination, PRSP. Type of assay: cell-based, Streptococcus pneumonia. The note with it: ATCC 700671, 24 h. As to the method: as §1, §2, §3, §4, §5
Assay [5] deals with Enterococcus faecalis ATCC 29212. As to the kind of experiment: MIC determination, E. faecalis. The settings on record: ATCC 29212, 24 h. Format: cell-based. As to the method: as §1, §2, §3, §4, §5
Assay [6] concerns Van-intermediate E. faecalis ATCC 51299 / Van-resistant E. faecalis ATCC 700221. As to the kind of experiment: MIC determination, VIRE/VRE. Type of assay: cell-based, Enterococcus faecalis. The note with it: ATCC 51299 / 700221, 24 h. As to the method:
The MICs were determined using a broth micro-dilution assay in accordance with that recommended by the National Committee for Clinical Laboratory Standards (NCCLS). The final bacterial inoculate contained approximately 5×10^5 cfu/mL and the plates were incubated at 35° C. for 18 h in ambient air (Streptococci in 5% CO2). The MIC was defined as the lowest drug concentration that prevented visible growth.
as §1, §2, §3, §4, §5

Another assay relates to S. cerevisiae Δpdr5. As to the kind of experiment: MIC determination, yeast. Format: cell-based. The note with it: YPD, 30 degrees Celsius. As to the method:
as §1, §3
Yeast cultures are started from a fresh colony into YPD media and then diluted to OD of 0.002. Diluted yeast is added to compound plates as bacteria but incubated at 30 degrees Celsius for 17 h. Controls are amphotericin B and voriconazole.
as §4, §5

As for `CC(O)C1ON(Cc2cccc(C#Cc3ccc(Cl)cc3)c2)C(C(=O)NCCc2c[nH]c3ccccc23)C1CO` (centres unmarked), in assay [1], the “MIC S. aureus” value is “*** (the MIC is less than 5 μg/mL)”. For the same compound, in assay [2], the “MIC MRSA” value is “*** (the MIC is less than 5 μg/mL)”. The “MIC S. pneuomiae” value in assay [3] is reported as “** (the MIC is 5-90 μg/mL)”. The “MIC PRSP” value in assay [4] is recorded as “** (the MIC is 5-90 μg/mL)”. For the same compound, the “MIC E. faecalis” value in assay [5] was “** (the MIC is 5-90 μg/mL)”. Moreover, the “MIC VIRE/VRE” value in assay [6] is reported as “** (the MIC is 5-90 μg/mL)”. For the same compound, the “MIC S. cerevisiae Δpdr5” value against S. cerevisiae Δpdr5 is “** (the MIC is 5-90 μg/mL)”.

Regarding `CC(O)C1ON(Cc2ccc(C#Cc3ccc(Cl)cc3)cc2)C(C(=O)NCCc2c[nH]c3ccccc23)C1CO` (centres unmarked), the “MIC S. aureus” value in assay [1] is given as “*** (the MIC is less than 5 μg/mL)”. Besides, the “MIC MRSA” value in assay [2] is on record as “*** (the MIC is less than 5 μg/mL)”. For the same compound, the “MIC S. pneuomiae” value in assay [3] is recorded as “** (the MIC is 5-90 μg/mL)”. Besides, in assay [4], the “MIC PRSP” value is listed as “** (the MIC is 5-90 μg/mL)”. In addition, in assay [5], the “MIC E. faecalis” value is recorded as “** (the MIC is 5-90 μg/mL)”. For the same compound, in assay [6], the “MIC VIRE/VRE” value is recorded as “** (the MIC is 5-90 μg/mL)”. In the assay on S. cerevisiae Δpdr5, the “MIC S. cerevisiae Δpdr5” value is “** (the MIC is 5-90 μg/mL)”.
